The target of this assay is T1, recombinant Schistosoma japonicum aldose reductase (rSjAR; SjAR) (Schistosoma japonicum, UniProt Q5DD64).
T1 construct: gene Akr1b4; SjAR-pET28a plasmid, expressed in E. coli BL21(DE3)
T1 sequence (Q5DD64 1-310): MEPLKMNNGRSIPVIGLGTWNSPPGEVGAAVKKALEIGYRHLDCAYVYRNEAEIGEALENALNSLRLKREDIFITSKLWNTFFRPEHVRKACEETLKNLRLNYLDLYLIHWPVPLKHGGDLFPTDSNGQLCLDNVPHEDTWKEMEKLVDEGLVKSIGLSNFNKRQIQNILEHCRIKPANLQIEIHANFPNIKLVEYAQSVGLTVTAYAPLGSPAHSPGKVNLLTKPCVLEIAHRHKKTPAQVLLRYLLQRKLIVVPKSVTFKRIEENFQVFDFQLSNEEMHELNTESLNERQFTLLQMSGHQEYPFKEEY
Briefly: NADPH depletion at […] nm, microplate. It counts as biochemical.

The record followed here is publication PMC3691639, “Aldose reductase from Schistosoma japonicum: crystallization and structure-based inhibitor screening for discovering antischistosomal lead compounds” (Parasites & Vectors, 2013).

Molecules are shown by their SMILES.

Turning to `O=C1c2ccccc2C(=C2c3ccccc3C(=O)c3ccccc32)c2ccccc21` [AR9], the concentration for half-maximal inhibition (IC50) was 30.6 µM.
